Numbers after ± are expanded uncertainties.
Experiments:
[1] = Gas, isochoric method
[2] = xn = mol fraction of the nth substance listed; settings: Gas, isochoric method, x1 = 0.6992

[HH] [hydrogen]
[1]
Settings	mass density [kg/m3]
722.4 K, 20262 kPa	6.45 ± 0.059
733.6 K, 20559 kPa	6.449 ± 0.059
743.1 K, 20811 kPa	6.447 ± 0.059
753.6 K, 21086 kPa	6.447 ± 0.054
763.9 K, 21370 kPa	6.445 ± 0.057
773.4 K, 21625 kPa	6.445 ± 0.058
784.3 K, 21917 kPa	6.444 ± 0.058
792.8 K, 22153 kPa	6.443 ± 0.058
803.8 K, 22451 kPa	6.442 ± 0.058
812.9 K, 22702 kPa	6.442 ± 0.056
822.2 K, 22963 kPa	6.441 ± 0.056
834.3 K, 23222 kPa	6.422 ± 0.054
844.3 K, 23469 kPa	6.412 ± 0.056
854.7 K, 23640 kPa	6.381 ± 0.058
863.3 K, 23818 kPa	6.366 ± 0.057
874.1 K, 24069 kPa	6.354 ± 0.053
883.3 K, 24272 kPa	6.344 ± 0.054
892.3 K, 24413 kPa	6.337 ± 0.054
904.5 K, 24668 kPa	6.324 ± 0.056
914.1 K, 24899 kPa	6.319 ± 0.054
924 K, 25112 kPa	6.313 ± 0.058

[HH] [hydrogen] + O=C=O
[2]
Settings	mass density [kg/m3]
673.4 K, 20652 kPa	50.77 ± 0.47
683.6 K, 20986 kPa	50.78 ± 0.43
693.5 K, 21304 kPa	50.79 ± 0.48
703.3 K, 21638 kPa	50.85 ± 0.48
713.9 K, 21981 kPa	50.87 ± 0.47
723.3 K, 22282 kPa	50.87 ± 0.44
733.9 K, 22610 kPa	50.86 ± 0.49
743.9 K, 22909 kPa	50.82 ± 0.47
753.6 K, 23216 kPa	50.82 ± 0.47

N#N [nitrogen]
[1]
Settings	mass density [kg/m3]
727.3 K, 20352 kPa	86.58 ± 0.74
805.8 K, 22603 kPa	86.28 ± 0.73
874.6 K, 24580 kPa	86.14 ± 0.72
927.1 K, 26090 kPa	86.03 ± 0.7

O [water]
[1]
Settings	mass density [kg/m3]
724.1 K, 15981 kPa	58.3 ± 0.77
773.1 K, 17804 kPa	58.58 ± 0.71
826.1 K, 19727 kPa	58.95 ± 0.72
877.1 K, 21161 kPa	58.02 ± 1.2
927.1 K, 22542 kPa	57.4 ± 0.74

From the NIST ThermoML archive (doi:10.1021/acs.jced.9b00399)
